This is an account of results in patent US20220396565A1 (Hoffmann-La Roche Inc., priority 2020, published 2022).

Counter-ions that a name gives are not always drawn.

The subject of one assay is Acinetobacter baumannii ATCC17978. Kind of assay: Antimicrobial susceptibility testing: 90% growth inhibitory concentration (IC90) determination, Iso-Sensitest broth. Format: cell-based. Particulars: 90% growth inhibitory concentration, Acinetobacter baumannii ATCC17978, Iso-Sensitest broth; read-out: ATCC 17978 IC90. Summed up: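 Twofold serial dilutions (e.g. 10 to 0.02 μM final) were tested in Iso-Sensitest broth against ~5×10^(5) CFU/ml at 35±2 °C. OD600 was read every 20 min over 16 h. IC90 was derived from growth inhibition during the logarithmic phase.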
With `COc1ccc(-c2cnc(C(=O)Nc3ccc(C(=O)N4CCN(C(=O)[C@@H]5C[C@@H](O)CN5)CC4)c(Cl)c3)n2C)c(F)c1F` [Example 106, N-[3-chloro-4-[4-[(2S,4R)-4-hydroxypyrrolidine-2-carbonyl]piperazine-1-carbonyl]phenyl]-5-(2,3-difluoro-4-methoxy-phenyl)-1-methyl-imidazole-2-carboxamide trifluoroacetate], the IC90 (usually the concentration needed for an effect of 90%) was determined as 100 nM.

Take `COc1ccc(-c2cnc(C(=O)Nc3ccc(C(=O)N4CCN(C(=O)[C@@H]5C[C@H](O)CN5)CC4)c(Cl)c3)n2C)c(F)c1F` [Example 107, N-[3-chloro-4-[4-[(2S,4S)-4-hydroxypyrrolidine-2-carbonyl]piperazine-1-carbonyl]phenyl]-5-(2,3-difluoro-4-methoxy-phenyl)-1-methyl-imidazole-2-carboxamide trifluoroacetate]: the IC90 is 80 nM. `COc1ccc(-c2cnc(C(=O)Nc3ccc(C(=O)N4CCN(C(=O)C5(O)CCNCC5)CC4)c(Cl)c3)n2C)c(Cl)c1F` [Example 113, 5-(2-chloro-3-fluoro-4-methoxy-phenyl)-N-[3-chloro-4-[4-(4-hydroxypiperidine-4-carbonyl)piperazine-1-carbonyl]phenyl]-1-methyl-imidazole-2-carboxamide formate]: the IC90 turned out to be 80 nM.

Take `COc1ccc(-c2cnc(C(=O)Nc3ccc(C(=O)N4CCN(C(=O)[C@@H]5C[C@H](O)CN5)CC4)c(Cl)c3)n2C)c(Cl)c1F` [Example 114, 5-(2-chloro-3-fluoro-4-methoxy-phenyl)-N-[3-chloro-4-[4-[(2S,4S)-4-hydroxypyrrolidine-2-carbonyl]piperazine-1-carbonyl]phenyl]-1-methyl-imidazole-2-carboxamide formate]: the IC90 is 110 nM. As to `COc1ccc(-c2cnc(C(=O)Nc3ccc(C(=O)N4CCN(C(=O)[C@H]5C[C@@H](O)CN5)CC4)c(Cl)c3)n2C)c(Cl)c1F` [Example 115, 5-(2-chloro-3-fluoro-4-methoxy-phenyl)-N-[3-chloro-4-[4-[(2R,4R)-4-hydroxypyrrolidine-2-carbonyl]piperazine-1-carbonyl]phenyl]-1-methyl-imidazole-2-carboxamide formate], the IC90 stood at 140 nM. With `COc1ccc(-c2cnc(C(=O)Nc3ccc(C(=O)N4CCC(C(=O)N5CCN[C@@H](CO)C5)CC4)c(Cl)c3)n2C)c(Cl)c1F` [Example 116, 5-(2-chloro-3-fluoro-4-methoxy-phenyl)-N-[3-chloro-4-[4-[(3R)-3-(hydroxymethyl)piperazine-1-carbonyl]piperidine-1-carbonyl]phenyl]-1-methyl-imidazole-2-carboxamide], the concentration for an effect of 90% (IC90) was 130 nM. Still for that read-out and setting: in the case of `COc1ccc(-c2cnc(C(=O)Nc3ccc(C(=O)N4CCN(C(=O)C5CCNCC5)CC4)c(C)c3)n2C)c(Cl)c1F` [Example 117, 5-(2-chloro-3-fluoro-4-methoxy-phenyl)-1-methyl-N-[3-methyl-4-[4-(piperidine-4-carbonyl)piperazine-1-carbonyl]phenyl]imidazole-2-carboxamide formate] it was 150 nM.

In the case of `Cn1c(-c2ccc(OCC#N)c(F)c2F)cnc1C(=O)Nc1ccc(C(=O)N2CCN(C(=O)C3CCNCC3)CC2)c(Cl)c1` [Example 196, N-(3-chloro-4-(4-(piperidine-4-carbonyl)piperazine-1-carbonyl)phenyl)-5-(4-(cyanomethoxy)-2,3-difluorophenyl)-1-methyl 1H-imidazole-2-carboxamide formate], the concentration for an effect of 90% (IC90) is 70 nM. As to `Cn1c(-c2ccc(OCC#N)c(F)c2F)cnc1C(=O)Nc1ccc(C(=O)N2CCN(C(=O)[C@@H]3CCCN3)CC2)c(Cl)c1` [Example 198, (S)-N-(3-chloro-4-(4-prolylpiperazine-1-carbonyl)phenyl)-5-(4-(cyanomethoxy)-2,3-difluorophenyl)-1-methyl-1H-imidazole-2-carboxamide 2,2,2-trifluoroacetate], the IC90 is 30 nM.

In the case of `Cn1c(-c2ccc(OCC#N)c(F)c2F)cnc1C(=O)Nc1ccc(C(=O)N2CCN(C(=O)[C@@H]3CCNC3)CC2)c(Cl)c1` [Example 199, (R)-N-(3-chloro-4-(4-(pyrrolidine-3-carbonyl)piperazine-1-carbonyl)phenyl)-5-(4-(cyanomethoxy)-2,3-difluorophenyl)-1-methyl-1H-imidazole-2-carboxamide 2,2,2-trifluoroacetate], the IC90 worked out at 40 nM. Turning to `Cn1c(-c2ccc(OCC#N)c(F)c2F)cnc1C(=O)Nc1ccc(C(=O)N2CCN(C(=O)[C@@H]3C[C@H](O)CN3)CC2)c(Cl)c1` [Example 201, N-(3-chloro-4-(4-((2S,4S)-4-hydroxypyrrolidine-2-carbonyl)piperazine-1-carbonyl)phenyl)-5-(4-(cyanomethoxy)-2,3-difluorophenyl)-1-methyl-1H-imidazole-2-carboxamide formate], the IC90 is 50 nM. As for `Cn1c(-c2ccc(OCC#N)c(F)c2F)cnc1C(=O)Nc1ccc(C(=O)N2CCN(C(=O)[C@@H]3C[C@@H](O)CN3)CC2)c(Cl)c1` [Example 202, N-(3-chloro-4-(4-((2S,4R)-4-hydroxypyrrolidine-2-carbonyl)piperazine-1-carbonyl)phenyl)-5-(4-(cyanomethoxy)-2,3-difluorophenyl)-1-methyl-1H-imidazole-2-carboxamide 2,2,2-trifluoroacetate], the IC90 is 90 nM. `Cc1cc(NC(=O)c2ncc(-c3ccc(OCC#N)c(F)c3F)n2C)ccc1C(=O)N1CCN(C(=O)[C@@H]2CCNC2)CC1` [Example 203, (R)-5-(4-(cyanomethoxy)-2,3-difluorophenyl)-1-methyl-N-(3-methyl-4-(4-(pyrrolidine-3-carbonyl)piperazine-1-carbonyl)phenyl)-1H-imidazole-2-carboxamide 2,2,2-trifluoroacetate]: the IC90 was found to be 90 nM. The same measure, in the same setting: under `CN(C)CC(=O)N1CCN(C(=O)c2ccc(NC(=O)c3ncc(-c4ccc(OCC#N)c(F)c4F)n3C)cc2Cl)CC1` [Example 204, N-(3-chloro-4-(4-(dimethylglycyl)piperazine-1-carbonyl)phenyl)-5-(4-(cyanomethoxy)-2,3-difluorophenyl)-1-methyl-1H-imidazole-2-carboxamide formate] stands 40 nM. As to `CNCC(=O)N1CCN(C(=O)c2ccc(NC(=O)c3ncc(-c4ccc(OCC#N)c(F)c4F)n3C)cc2Cl)CC1` [Example 205, N-(3-chloro-4-(4-(methylglycyl)piperazine-1-carbonyl)phenyl)-5-(4-(cyanomethoxy)-2,3-difluorophenyl)-1-methyl-1H-imidazole-2-carboxamide formate], the IC90 worked out at 60 nM. On the same count and under the same terms, under `CNCC(=O)N1CCN(C(=O)c2ccc(NC(=O)c3ncc(-c4ccc(OCC#N)c(F)c4F)n3C)cc2C)CC1` [Example 206, 5-(4-(cyanomethoxy)-2,3-difluorophenyl)-1-methyl-N-(3-methyl-4-(4-(methylglycyl)piperazine-1-carbonyl)phenyl)-1H-imidazole-2-carboxamide 2,2,2-trifluoroacetate] stands 100 nM; under `Cn1c(-c2ccc(OCC#N)c(F)c2F)cnc1C(=O)Nc1ccc(C(=O)N2CCN(C(=O)C3(O)CCNCC3)CC2)c(Cl)c1` [Example 207, N-(3-chloro-4-(4-(4-hydroxypiperidine-4-carbonyl)piperazine-1-carbonyl)phenyl)-5-(4-(cyanomethoxy)-2,3-difluorophenyl)-1-methyl-1H-imidazole-2-carboxamide 2,2,2-trifluoroacetate], 50 nM. Take `CN(C)CCN1CCN(C(=O)c2ccc(NC(=O)c3ncc(-c4ccc(OCC#N)c(F)c4Cl)n3C)cc2Cl)CC1` [Example 270, 5-[2-chloro-4-(cyanomethoxy)-3-fluoro-phenyl]-N-[3-chloro-4-[4-[2-(dimethylamino)ethyl]piperazine-1-carbonyl]phenyl]-1-methyl-imidazole-2-carboxamide]: the IC90 is 50 nM. As to `COc1ccc(-c2cnc(C(=O)Nc3ccc(C(=O)N4CCN(CCN(C)C)CC4)c(Cl)c3)n2C)cc1F` [Example 274, N-[3-chloro-4-[4-[2-(dimethylamino)ethyl]piperazine-1-carbonyl]phenyl]-5-(3-fluoro-4-methoxy-phenyl)-1-methyl-imidazole-2-carboxamide formate], the IC90 is 290 nM.

As to `CCc1cc(NC(=O)c2ncc(-c3ccc(OC(F)F)cc3)n2C)ccc1C(=O)N1CCN(CCN(C)C)CC1` [Example 275, 5-[4-(difluoromethoxy)phen-yl]-N-[4-[4-[2-(dimethylamino)ethyl]piperazine-1-carbonyl]-3-ethyl-phenyl]-1-methyl-imidazole-2-carboxamide], the IC90 was 1520 nM.

The same assay, now with this note: Acinetobacter baumannii, ATCC17978, read-out: ATCC 17978 IC90.
For `Cn1c(-c2ccc(OCC#N)c(F)c2F)cnc1C(=O)Nc1ccc(C(=O)N2CCN(C(=O)[C@H]3CCCN3)CC2)c(Cl)c1` [Example 197, (R)-N-(3-chloro-4-(4-prolylpiperazine-1-carbonyl)phenyl)-5-(4-(cyanomethoxy)-2,3-difluorophenyl)-1-methyl 1H-imidazole-2-carboxamide 2,2,2-trifluoroacetate], the IC90 came to 70 nM.

With `Cn1c(-c2ccc(OCC#N)c(F)c2F)cnc1C(=O)Nc1ccc(C(=O)N2CCN(C(=O)[C@H]3CCNC3)CC2)c(Cl)c1` [Example 200, (S)-N-(3-chloro-4-(4-(pyrrolidine-3-carbonyl)piperazine-1-carbonyl)phenyl)-5-(4-(cyanomethoxy)-2,3-difluorophenyl)-1-methyl 1H-imidazole-2-carboxamide 2,2,2-trifluoroacetate], the IC90 came to 50 nM.

Consider `CN(C)CCN1CCN(C(=O)c2ccc(NC(=O)c3ncc(-c4ccc(OCC#N)c(Cl)c4)n3C)cc2Cl)CC1` [Example 269, 5-[3-Chloro-4-(cyanomethoxy)phenyl]-N-[3-chloro-4-[4-[2-(dimethylamino)ethyl]piperazine-1-carbonyl]phenyl]-1-methyl-imidazole-2-carboxamide trifluoroacetate], for which the IC90 was 70 nM.
